Where “and” joins values, the source holds several entries; their conditions need not be identical. Identical values can stand only once.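 1) Cells in 96-well plates. 2) Compound, 48 h, 5 concentrations. 3) Linear interpolation between surrounding doses. 4) Unreached endpoint = highest concentration. GI50 is the concentration that inhibits growth by half. TGI is the concentration that stops growth completely.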
Key:
Assay in all cases: NCI tumour cell line growth inhibition, 48 h
OVCAR-5 ovarian = tested on: OVCAR-5 ovarian
SNB-75 CNS = tested on: SNB-75 CNS
TK-10 renal = tested on: TK-10 renal
SNB-19 CNS = tested on: SNB-19 CNS
HL-60(TB) leukemia = tested on: HL-60(TB) leukemia
HT29 colon = tested on: HT29 colon
RPMI-8226 leukemia = tested on: RPMI-8226 leukemia
UO-31 renal = tested on: UO-31 renal
OVCAR-4 ovarian = tested on: OVCAR-4 ovarian
HOP-92 NSCLC = tested on: HOP-92 NSCLC

## O=C(CC(O)c1ccncc1)c1ccccc1 (centres undefined)
OVCAR-5 ovarian
  GI50: 37.6 µM
  TGI: > 100 µM
SNB-75 CNS
  GI50: 17.8 µM
  TGI: > 100 µM
TK-10 renal
  GI50: 41.8 µM
  TGI: > 100 µM
SNB-19 CNS
  GI50: 34.1 µM
  TGI: > 100 µM
HL-60(TB) leukemia
  GI50: 17.6 µM
  TGI: 59.6 µM
HT29 colon
  GI50: 28.6 µM
  TGI: 85.3 µM
RPMI-8226 leukemia
  GI50: 17.9 µM
  TGI: 62.6 µM
UO-31 renal
  GI50: 22.1 µM
  TGI: > 100 µM
OVCAR-4 ovarian
  GI50: 20.5 µM
  TGI: > 100 µM
HOP-92 NSCLC
  GI50: 16.1 µM
  TGI: 69.6 µM

## CCN(CC)CCC(=O)N1CCc2c([nH]c3ccccc23)C1c1cccnc1 (centres undefined)
OVCAR-5 ovarian
  TGI: > 100 µM
SNB-75 CNS
  TGI: > 100 µM
TK-10 renal
  TGI: > 100 µM
SNB-19 CNS
  TGI: > 100 µM
HL-60(TB) leukemia
  TGI: > 100 µM
HT29 colon
  TGI: > 100 µM
RPMI-8226 leukemia
  TGI: > 100 µM
UO-31 renal
  TGI: > 100 µM
OVCAR-4 ovarian
  TGI: > 100 µM
HOP-92 NSCLC
  TGI: > 100 µM

## O=c1[nH]c(=O)n(C2CC(O)C(CO)O2)cc1C#Cc1cc(C(F)(F)F)cc(C(F)(F)F)c1 (centres undefined)
OVCAR-5 ovarian
  TGI: > 100 µM
SNB-75 CNS
  TGI: > 67.1 µM
TK-10 renal
  TGI: > 100 µM
SNB-19 CNS
  TGI: > 100 µM
HL-60(TB) leukemia
  TGI: > 100 µM
HT29 colon
  TGI: > 51.9 µM
RPMI-8226 leukemia
  TGI: > 100 µM
UO-31 renal
  TGI: > 100 µM
OVCAR-4 ovarian
  TGI: > 100 µM
HOP-92 NSCLC
  TGI: > 100 µM

## O=C(NCC(=O)N1CC[C@H](NC2CCC(O)(c3ccc(-c4ncccn4)cn3)CC2)C1)c1cccc(C(F)(F)F)c1 (some centres undefined)
OVCAR-5 ovarian
  GI50: > 100 µM
  TGI: > 100 µM
SNB-75 CNS
  GI50: 20.2 µM
  TGI: > 100 µM
TK-10 renal
  GI50: > 100 µM
  TGI: > 100 µM
SNB-19 CNS
  GI50: > 100 µM
  TGI: > 100 µM
HL-60(TB) leukemia
  GI50: 55.4 µM
  TGI: > 100 µM
HT29 colon
  GI50: 53 µM
  TGI: > 100 µM
RPMI-8226 leukemia
  GI50: 31 µM
  TGI: > 100 µM
UO-31 renal
  GI50: 52.3 µM
  TGI: > 100 µM
OVCAR-4 ovarian
  GI50: 37.7 µM
  TGI: > 100 µM
HOP-92 NSCLC
  GI50: 30.4 µM
  TGI: > 100 µM

## Cc1[nH]n(-c2ccc(S(=O)(=O)O)cc2)c(=O)c1N=Nc1ccccc1
OVCAR-5 ovarian
  TGI: > 100 µM
SNB-75 CNS
  TGI: > 100 µM
TK-10 renal
  TGI: > 100 µM
SNB-19 CNS
  TGI: > 100 µM
HT29 colon
  TGI: > 100 µM
RPMI-8226 leukemia
  TGI: > 100 µM
UO-31 renal
  TGI: > 100 µM
OVCAR-4 ovarian
  TGI: > 100 µM
HOP-92 NSCLC
  TGI: > 100 µM

## N#CCCN(CCC#N)c1ccc(/C=N\c2nc(-c3ccccc3)cs2)cc1
OVCAR-5 ovarian
  TGI: > 100 µM
SNB-75 CNS
  TGI: > 100 µM
TK-10 renal
  TGI: > 100 µM
SNB-19 CNS
  TGI: > 100 µM
HL-60(TB) leukemia
  TGI: > 100 µM
HT29 colon
  TGI: > 100 µM
RPMI-8226 leukemia
  TGI: > 100 µM
UO-31 renal
  TGI: > 100 µM
OVCAR-4 ovarian
  TGI: > 100 µM
HOP-92 NSCLC
  TGI: > 100 µM

## C[N+](C)(C)Cc1c(CC#N)[nH]c2ccccc12
OVCAR-5 ovarian
  TGI: > 100 µM
SNB-75 CNS
  TGI: > 100 µM
TK-10 renal
  TGI: > 100 µM
SNB-19 CNS
  TGI: > 100 µM
HL-60(TB) leukemia
  TGI: > 100 µM
HT29 colon
  TGI: > 100 µM
RPMI-8226 leukemia
  TGI: > 100 µM
UO-31 renal
  TGI: > 100 µM
OVCAR-4 ovarian
  TGI: > 100 µM

## COc1cc2c(cc1OCCCCCn1c(-c3ccco3)nc3ccccc31)N=C[C@@H]1CCCN1C2=O
SNB-75 CNS
  GI50: < 0.01 µM
  TGI: 0.0334 µM
TK-10 renal
  GI50: 0.0267 µM
  TGI: 35.6 µM
HL-60(TB) leukemia
  GI50: 0.023 µM
  TGI: 0.114 µM
HT29 colon
  GI50: < 0.01 µM
  TGI: > 100 µM
RPMI-8226 leukemia
  GI50: < 0.01 µM
  TGI: < 0.0309 µM
OVCAR-4 ovarian
  GI50: < 0.014 µM
  TGI: > 41.4 µM
HOP-92 NSCLC
  GI50: < 0.0122 µM

## O=C1CSC(=S)N1Cc1cccnc1
OVCAR-5 ovarian
  GI50: 13.2 µM
  TGI: 26.8 µM
SNB-75 CNS
  GI50: 16.2 µM
  TGI: 72.5 µM
TK-10 renal
  GI50: 2.84 µM
  TGI: 7.14 µM
SNB-19 CNS
  GI50: 47.8 µM
  TGI: > 100 µM
HL-60(TB) leukemia
  GI50: 7.27 µM
  TGI: 49 µM
HT29 colon
  GI50: 3.9 µM
  TGI: 11.9 µM
RPMI-8226 leukemia
  GI50: 3.35 µM
  TGI: 17.1 µM
UO-31 renal
  GI50: 4.61 µM
  TGI: 17.6 µM
OVCAR-4 ovarian
  GI50: 7.78 µM
  TGI: 25.4 µM

## COc1ccc2cc3[n+](cc2c1OC)CCc1cc2c(cc1-3)OCO2
OVCAR-5 ovarian
  TGI: > 100 µM and 149 µM
SNB-75 CNS
  GI50: 21.4 µM
TK-10 renal
  TGI: > 100 µM
SNB-19 CNS
  GI50: 0.831 µM
  TGI: > 100 µM and > 77.2 µM and 145 µM
HT29 colon
  GI50: 23.7 µM
  TGI: > 100 µM and > 92.7 µM and 87.6 µM
RPMI-8226 leukemia
  TGI: > 100 µM
OVCAR-4 ovarian
  TGI: 93.7 µM and > 100 µM and 62 µM
HOP-92 NSCLC
  GI50: 8.54 µM

## Oc1ccccc1Nc1nc2ccccc2c2occc12
OVCAR-5 ovarian
  GI50: 12.6 µM
  TGI: 25.1 µM
TK-10 renal
  GI50: 1.9 µM
  TGI: 6.65 µM
SNB-19 CNS
  GI50: 7.22 µM
  TGI: 20.3 µM
RPMI-8226 leukemia
  GI50: 9.11 µM
  TGI: 57.8 µM
UO-31 renal
  GI50: 5.91 µM
  TGI: 19.6 µM
OVCAR-4 ovarian
  GI50: 10.8 µM
  TGI: 31.4 µM
HOP-92 NSCLC
  GI50: 5.73 µM
  TGI: 19.5 µM

## CC(=O)c1c(O)ccc2c(C)c(C(=O)O)oc12
OVCAR-5 ovarian
  GI50: > 100 µM
  TGI: > 100 µM
SNB-75 CNS
  GI50: > 100 µM
  TGI: > 100 µM
TK-10 renal
  GI50: > 100 µM
  TGI: > 100 µM
SNB-19 CNS
  GI50: > 100 µM
  TGI: > 100 µM
HT29 colon
  GI50: > 100 µM
  TGI: > 100 µM
RPMI-8226 leukemia
  GI50: > 100 µM
  TGI: > 100 µM
UO-31 renal
  GI50: > 100 µM
  TGI: > 100 µM
OVCAR-4 ovarian
  GI50: > 100 µM
  TGI: > 100 µM
HOP-92 NSCLC
  GI50: > 100 µM
  TGI: > 100 µM

## COc1ccc(Cn2cnc3cc(C(=O)Nc4cccc5ccccc45)ccc32)c(OC)c1
OVCAR-5 ovarian
  GI50: 0.18 µM
  TGI: > 100 µM
TK-10 renal
  GI50: 1.17 µM
  TGI: > 100 µM
SNB-19 CNS
  GI50: 0.0465 µM
  TGI: > 100 µM
HL-60(TB) leukemia
  GI50: 0.0319 µM
  TGI: 0.145 µM
HT29 colon
  GI50: 0.0345 µM
  TGI: 5.18 µM
RPMI-8226 leukemia
  GI50: 0.0368 µM
  TGI: 12.5 µM
UO-31 renal
  GI50: 0.0759 µM
  TGI: > 100 µM
OVCAR-4 ovarian
  GI50: 0.122 µM
  TGI: > 100 µM
HOP-92 NSCLC
  GI50: 0.153 µM
  TGI: > 100 µM

## CO/N=C(\COc1ccc2c(c1)oc(=O)c1cc(OC)ccc12)c1ccc(F)cc1
OVCAR-5 ovarian
  GI50: 29.4 µM
  TGI: 83.4 µM
SNB-75 CNS
  GI50: 13.4 µM
  TGI: 27.1 µM
TK-10 renal
  GI50: 14.7 µM
  TGI: 29.5 µM
SNB-19 CNS
  GI50: 30.4 µM
  TGI: > 100 µM
HT29 colon
  GI50: 16.7 µM
  TGI: 66.8 µM
RPMI-8226 leukemia
  GI50: 32.8 µM
  TGI: > 100 µM
UO-31 renal
  GI50: 12.7 µM
  TGI: 32.3 µM
OVCAR-4 ovarian
  GI50: 21.2 µM
  TGI: 58.3 µM
HOP-92 NSCLC
  GI50: 14.4 µM
  TGI: 37.4 µM

## CCC[CH2][Sn]1([CH2]CCC)[O]C(=O)c2cccc(OC)c2[O]1
OVCAR-5 ovarian
  GI50: 1.55 µM
  TGI: 2.9 µM
SNB-75 CNS
  GI50: 0.112 µM
  TGI: 1.26 µM
TK-10 renal
  GI50: 0.316 µM
  TGI: 0.829 µM
SNB-19 CNS
  GI50: 0.799 µM
  TGI: 2.13 µM
HL-60(TB) leukemia
  GI50: 0.106 µM
  TGI: 0.98 µM
HT29 colon
  GI50: 0.798 µM
  TGI: 2.09 µM
UO-31 renal
  GI50: 0.806 µM
  TGI: 2.07 µM
OVCAR-4 ovarian
  GI50: 1.05 µM
  TGI: 2.25 µM
HOP-92 NSCLC
  GI50: < 0.0456 µM
  TGI: 0.486 µM

## Cn1cnc([N+](=O)[O-])c1Sc1nc2cccnc2s1
OVCAR-5 ovarian
  TGI: > 100 µM
SNB-75 CNS
  TGI: 65.8 µM
TK-10 renal
  TGI: 30.3 µM
SNB-19 CNS
  TGI: > 100 µM
HT29 colon
  TGI: 63.7 µM
RPMI-8226 leukemia
  TGI: 60.4 µM
UO-31 renal
  TGI: 34.1 µM
OVCAR-4 ovarian
  TGI: 25.2 µM
HOP-92 NSCLC
  TGI: 33.9 µM

— PubChem BioAssay (NCI)
